Measured values taken from PubChem BioAssay (NCI).
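Following 48 hours of exposure in 96-well plates, responses at five concentrations were used to interpolate endpoints linearly. Abbreviation: GI50, concentration required for 50% inhibition of growth. TGI is the concentration that stops growth completely.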

How the values were obtained:
Experiment in all cases: NCI-60 cell line screen, 48 h
[1] = tested on: HCT-116 colon
[2] = tested on: OVCAR-4 ovarian
[3] = tested on: SN12C renal
[4] = tested on: NCI-H23 lung
[5] = tested on: 786-0 renal
[6] = tested on: HCT-15 colon
[7] = tested on: SK-MEL-28 melanoma
[8] = tested on: MCF7 breast
[9] = tested on: NCI-H226 lung
[10] = tested on: A498 renal

## S=c1[nH]c2ccc(Br)cc2c(=S)s1
[1]
  TGI: 52.1 µM
[2]
  TGI: 38.6 µM
[3]
  TGI: 46.5 µM
[4]
  TGI: 82.6 µM
[5]
  TGI: > 100 µM
[6]
  TGI: > 100 µM
[7]
  TGI: > 100 µM
[8]
  TGI: 40.8 µM
[9]
  TGI: > 100 µM

## O=C1Sc2ccccc2C(=O)N2CSCC12 (stereo unspecified)
[1]
  TGI: > 100 µM
[3]
  TGI: > 100 µM
[4]
  TGI: > 100 µM
[5]
  TGI: > 100 µM
[7]
  TGI: > 100 µM
[9]
  TGI: > 100 µM

## CCN(CC)CCCNC(=O)c1ccc([N+](=O)[O-])cc1O
[2]
  TGI: > 100 µM
[3]
  TGI: > 100 µM
[4]
  TGI: > 100 µM
[5]
  TGI: > 100 µM
[6]
  TGI: > 100 µM
[10]
  TGI: > 100 µM
[7]
  TGI: > 100 µM
[9]
  TGI: > 100 µM

## S=C(/N=c1\sc(Nc2ccc(Cl)cc2)nc2sc3c(c12)CCN(N1CCc2c(sc4nc(Nc5ccc(Cl)cc5)s/c(=N\C(=S)Nc5ccc(Cl)cc5)c24)C1)C3)Nc1ccc(Cl)cc1
[1]
  TGI: 31.7 µM
[3]
  TGI: 38.5 µM
[4]
  TGI: > 100 µM
[5]
  TGI: 31.9 µM
[6]
  TGI: > 100 µM
[7]
  TGI: > 100 µM
[8]
  TGI: > 100 µM
[9]
  TGI: > 100 µM

## CCc1c[n+]([O-])c(C)cc1[N+](=O)[O-]
[1]
  TGI: > 100 µM
[3]
  TGI: > 100 µM
[4]
  TGI: > 100 µM
[5]
  TGI: > 100 µM
[6]
  TGI: 40.1 µM
[10]
  TGI: > 100 µM
[7]
  TGI: > 100 µM
[8]
  TGI: > 100 µM

## CCOC(=O)C1(C(=O)OCC)COS(=O)OC1
[1]
  TGI: 31.2 µM
[2]
  TGI: 42.6 µM
[3]
  TGI: > 100 µM
[4]
  TGI: > 100 µM
[6]
  TGI: 54.6 µM
[10]
  TGI: > 100 µM
[7]
  TGI: 95.7 µM
[8]
  TGI: 36.6 µM
[9]
  TGI: 40.6 µM

## CC[n+]1[b-](C(C)(C)C)n(/N=C/C(C)(C)C)[b-](C(C)(C)C)[n+]1CC
[1]
  TGI: > 100 µM
[2]
  TGI: > 100 µM
[3]
  TGI: > 100 µM
[4]
  TGI: > 100 µM
[5]
  TGI: > 100 µM
[6]
  TGI: > 100 µM
[7]
  TGI: > 100 µM
[8]
  TGI: > 100 µM
[9]
  TGI: > 100 µM

## O=C(CNc1c(Cl)cccc1Cl)NC1C=Cc2ccc(S(=O)(=O)Nc3c(Cl)cccc3Cl)cc2C1=O (stereo unspecified)
[1]
  TGI: > 100 µM
[2]
  TGI: > 100 µM
[3]
  TGI: > 100 µM
[4]
  TGI: > 100 µM
[5]
  TGI: > 100 µM
[6]
  TGI: > 100 µM
[7]
  TGI: > 100 µM
[8]
  TGI: > 100 µM
[9]
  TGI: > 100 µM

## C=CCNC(=S)N=Nc1c(O)[nH]c2ccc([N+](=O)[O-])cc12
[1]
  TGI: > 100 µM
[2]
  TGI: > 100 µM
[3]
  TGI: > 100 µM
[4]
  TGI: > 100 µM
[6]
  TGI: > 100 µM
[10]
  TGI: 91.7 µM
[7]
  TGI: > 100 µM
[8]
  TGI: > 100 µM
[9]
  TGI: > 100 µM

## CC(=O)O/N=C/c1c2ccccc2cc2ccccc12
[1]
  TGI: > 100 µM
[3]
  TGI: > 100 µM
[4]
  TGI: > 100 µM
[6]
  TGI: > 100 µM
[10]
  TGI: > 100 µM
[7]
  TGI: > 100 µM
[8]
  TGI: > 100 µM
[9]
  TGI: > 100 µM

## c1ccc2c(c1)c1c(n2CCOCCN2CCOCC2)CCCC1
[1]
  TGI: > 100 µM
[2]
  TGI: 86.8 µM
[4]
  TGI: > 100 µM
[6]
  TGI: > 100 µM
[10]
  TGI: 98.9 µM
[7]
  TGI: 52 µM
[8]
  TGI: > 100 µM

## C=Cc1ccc(C)[n+](C[Si](C)(C)O[Si](C)(C)C[n+]2cc(C=C)ccc2C)c1
[1]
  TGI: > 100 µM
[2]
  TGI: > 100 µM
[3]
  TGI: > 100 µM
[4]
  TGI: > 100 µM
[5]
  TGI: > 100 µM
[7]
  TGI: > 100 µM
[9]
  TGI: > 100 µM

## CC(=O)OCC1OC(n2cc(I)c(=O)[nH]c2=O)C(OC(C)=O)C(OC(C)=O)C1OC(C)=O (stereo unspecified)
[1]
  TGI: > 100 µM
[2]
  TGI: > 100 µM
[3]
  TGI: > 100 µM
[4]
  TGI: > 100 µM
[5]
  TGI: > 100 µM
[6]
  TGI: > 100 µM
[10]
  TGI: > 100 µM
[7]
  TGI: > 100 µM
[9]
  TGI: > 100 µM

## CSC(=Nc1ccccc1)N(c1ccccc1)c1nc(=[N+](C)C)ss1
[1]
  TGI: 12 µM
[2]
  TGI: 21.5 µM
[3]
  TGI: 14.7 µM
[4]
  TGI: 19.8 µM
[5]
  TGI: 19.3 µM
[6]
  TGI: 13.7 µM
[10]
  TGI: 27.9 µM
[7]
  TGI: 2.83 µM

## C(=Nc1ccc(-c2nc3ccccc3o2)cc1)c1ccco1
[1]
  TGI: > 100 µM
[2]
  TGI: > 100 µM
[3]
  TGI: > 100 µM
[4]
  TGI: > 100 µM
[5]
  TGI: > 100 µM
[6]
  TGI: > 100 µM
[10]
  TGI: 95 µM
[7]
  TGI: > 100 µM
[8]
  TGI: > 100 µM

## CC(C(=O)N1C(=O)N(C(=O)C(C)C(O)c2ccccc2)C2CCCCC21)C(O)c1ccccc1 (stereo unspecified)
[1]
  TGI: > 100 µM
[2]
  TGI: > 100 µM
[3]
  TGI: > 100 µM
[4]
  TGI: > 100 µM
[5]
  TGI: > 100 µM
[6]
  TGI: > 100 µM
[7]
  TGI: > 100 µM

## N=C(N)c1ccc(-c2ccc(-c3cccs3)s2)cc1
[2]
  GI50: 1.71 µM
  TGI: 4.24 µM
[4]
  GI50: 1.98 µM
  TGI: 4.86 µM
[10]
  GI50: 0.462 µM
  TGI: 3.04 µM
[7]
  GI50: 1.63 µM
  TGI: 3.07 µM
[9]
  GI50: 4.03 µM
  TGI: 33 µM

## O=C1NCCS(=O)(=O)N[C@@H](CC2=CC=CCC2)C(=O)N2CCCC12 (stereo partly specified)
[1]
  TGI: > 100 µM
[2]
  TGI: > 100 µM
[3]
  TGI: > 100 µM
[4]
  TGI: > 100 µM
[5]
  TGI: > 100 µM
[6]
  TGI: > 100 µM
[10]
  TGI: > 100 µM
[7]
  TGI: > 100 µM
[9]
  TGI: > 100 µM

## CCN1CCCC(NCc2c3ccccc3c(CNC3CCCN(CC)C3)c3ccccc23)C1 (stereo unspecified)
[1]
  TGI: 23.3 µM
[2]
  TGI: 18 µM
[3]
  TGI: 40.3 µM
[4]
  TGI: 34.8 µM
[6]
  TGI: 43.9 µM
[10]
  TGI: 28.2 µM
[7]
  TGI: 25.9 µM
[8]
  TGI: 15.2 µM
[9]
  TGI: 30 µM

## CC(C)=CCC/C(C)=C/COC(C)(C)C1=CCC(C)CC1 (stereo unspecified) (tested in a mixture with another compound)
[1]
  TGI: > 100 µM
[2]
  TGI: > 100 µM
[3]
  TGI: > 100 µM
[4]
  TGI: > 100 µM
[5]
  TGI: > 100 µM
[6]
  TGI: > 100 µM
[10]
  TGI: > 100 µM
[7]
  TGI: > 100 µM
[8]
  TGI: > 100 µM

## Cn1ccnc1C(O)(c1nccn1C)c1nccn1C
[2]
  TGI: > 100 µM
[3]
  TGI: > 100 µM
[4]
  TGI: > 100 µM
[7]
  TGI: > 100 µM
[9]
  TGI: > 100 µM

## Nc1nc(N)c(N=O)c(Nc2ccc(Br)cc2)n1
[1]
  TGI: 37.8 µM
[2]
  TGI: > 100 µM
[3]
  TGI: > 100 µM
[4]
  TGI: > 100 µM
[5]
  TGI: > 100 µM
[6]
  TGI: > 100 µM
[10]
  TGI: 35.2 µM
[7]
  TGI: 68.6 µM
[9]
  TGI: 92.7 µM

## O=c1[nH]cnc2c1ncn2[C@@H]1C[C@@H]1CO
[1]
  TGI: > 100 µM
[2]
  TGI: > 100 µM
[3]
  TGI: > 100 µM
[4]
  TGI: > 100 µM
[5]
  TGI: > 100 µM
[6]
  TGI: > 100 µM
[7]
  TGI: > 100 µM
[8]
  TGI: > 100 µM
[9]
  TGI: > 100 µM

## O=C(NC(COC(=O)C(Cc1ccccc1)NC(=O)c1ccccc1)Cc1ccccc1)c1ccccc1 (stereo unspecified)
[2]
  TGI: > 50 µM
[4]
  TGI: > 50 µM
[6]
  TGI: > 50 µM
[10]
  TGI: > 50 µM
[7]
  TGI: > 50 µM
[8]
  TGI: > 50 µM
